Results as given in patent publication US9585958B2, “Compositions and methods for reducing lactate levels” (The Regents of the University of California, priority 2013, dated 2017).

Legend:
[1] = Log D measurements (octanol/PBS, 13C NMR); assay type: physicochemical; conditions: octanol / 1×PBS pH 7.4, 16 h shaking
Experimental: 45 μmoles of ABA and 3-^13C-sodium L-lactate dissolved in 500 μL of 1×PBS at pH 7.4 were added to 500 μL of octanol and vigorously shaken for 16 h and then centrifuged for 2 min at 10,000×Gs to extract PBS. A 200 μL of D2O along with 188.7 μmoles (10 μL of 99.8%) of acetonitrile was added to the PBS and a carbon NMR was performed with 16 scans. The area under the curve for the NMR traces obtained was calculated using Mest-ReC software. Similarly, a carbon NMR was performed with 16 scans on a solution containing 45 μmoles of ABA, 45 μmoles of 3-^13C-sodium L-lactate dissolved in 500 μL of 1×PBS at pH 7.4 along with 200 μL of D2O and with 188.7 μmoles (10 μL of 99.8%) of acetonitrile. Area under the curve for the NMR traces obtained was calculated using Mest-ReC software. Acetonitrile peak at δ=1.47 was used as reference.
Furthermore, as controls, 3-^13C-sodium L-lactate dissolved in 500 μL of 1×PBS at pH 7.4 was added to 500 μL of octanol and vigorously shaken for 16 h and then centrifuged for 2 min at 10,000×Gs to extract PBS. A 200 μL of D2O along with 188.7 μmoles (10 μL of 99.8%) of acetonitrile was added to the PBS and a carbon NMR was performed with 16 scans. The area under the curve for the NMR traces obtained was calculated using Mest-ReC software. […] Area under the curve for the NMR traces obtained was calculated using Mest-ReC software.

[2] = Permeation through DMPC liposomes (lactate assay kit); assay type: in vitro ADME; conditions: 112 mM
Experimental: It was investigated whether ABA can enhance lactate membrane permeability. Liposomes were generated from 1,2-dimyristoyl-sn-glycero-3-phosphocholine (DMPC), by evaporating 400 μL of 1 mg/mL of DMPC in chloroform in a 100 mL glass flask to completion; and the lipids were re-suspended in 400 μL PBS, thereby forming the liposomes. 50 μL of the liposomes and 50 μL of 112 mM ABA premixed with lactate were then added to the wells of the 96-well plate, and lactate assay kit was performed, according to the manufacturer's instructions. As controls, 50 μL of PBS and 50 μL of 112 mM ABA premixed with lactate were then added to the wells of the 96-well plate and lactate assay kit was performed, according to the manufacturer's instructions. Furthermore, for determining the permeability of lactate through the liposomes, 50 μL of the liposomes and 50 μL of 112 mM lactate were added to the wells of the 96-well plate, and lactate assay kit was performed, according to the manufacturer's instructions. As controls, 50 μL of PBS and 50 μL of 112 mM lactate were added to the wells of the 96-well plate and lactate assay kit was performed, according to the manufacturer's instructions.

## C[C@H](O)C(=O)[O-].[Na+] [lactate, sodium L-lactate]
[1]
  Log D: −2
[2]
  permeation through liposomes: did not permeate through the liposomes
